Experimental data published in ChEMBL document CHEMBL1136551, “Characterization of the mechanism of anticonvulsant activity for a selected set of putative AMPA receptor antagonists” (Bioorg Med Chem Lett, 2003).
pIC50: −log10 of the molar value.

What was measured:
Rattus norvegicus = species on record: Rattus norvegicus; assay: Inhibition of KA-induced increase in [Ca2+]i in rat cerebellar granule neurons; format: functional
[1] = target: T1, Glutamate receptor ionotropic, AMPA (Rattus norvegicus, UniProt P19490+P19491+P19492+P19493); assay: Ability to displace [3H]CP-526427 from the Ionotropic glutamate receptor AMPA binding site in rat forebrain membranes; format: cell membranes, Brain, Membrane
[2] = target: Glutamate receptor ionotropic, AMPA (Rattus norvegicus) (UniProt P19491+P19492+P19493+P19490); assay: Percent inhibition of [3H]CP-526427 binding to Ionotropic glutamate receptor AMPA in rat forebrain membranes at 32 uM; format: cell membranes; conditions: Membrane
[3] = target: Glutamate receptor ionotropic, NMDA 1 (Rattus norvegicus) (UniProt P35439); assay: Percentage inhibition of [3H]glycine to NMDA receptors of rat cortical membranes at 32 uM; format: cell membranes; conditions: Membrane
Mus musculus [4] = species on record: Mus musculus; assay: Anticonvulsant activity against audiogenic seizures in DBA/2 mice measured in clonic phase; format: functional
[5] = target: Glutamate receptor ionotropic, NMDA 1 (Rattus norvegicus, UniProt P35439); assay: Inhibition of specific binding of [3H]glycine to NMDA receptors, in rat cortical membranes at 32 uM conc.; format: cell membranes, Membrane
Mus musculus [6] = species on record: Mus musculus; assay: Anticonvulsant activity against audiogenic seizures in DBA/2 mice measured in tonic phase; format: functional
[7] = target: T1, Glutamate receptor ionotropic, AMPA; assay: Ability to displace [3H]CP-526427 from the AMPA receptor binding site in rat forebrain membranes; format: cell membranes, Membrane

| SMILES | pIC50 (Rattus norvegicus) | pIC50 [1] | inhibition [2] | inhibition [3] | ED50 (Mus musculus [4]) | pIC50 [5] | ED50 (Mus musculus [6]) | pIC50 [7] |
| --- | --- | --- | --- | --- | --- | --- | --- | --- |
| CNC(=O)N1N=C(c2ccc(N)cc2)c2cc3c(cc2CC1=O)OCO3 | 4.96 | 4.92 | 59% | 0% | – | – | – | – |
| CNC(=O)NC(=O)Cc1cc2c(cc1C(=O)c1ccc(N)cc1)OCO2 | – | – | 3% | 11% | – | – | – | – |
| CNC(=O)N/N=C(\c1ccc(N)cc1)c1cc2c(cc1CC(=O)OC)OCO2 | – | – | 16% | 2% | 7.87 µmol/kg | – | – | – |
| Nc1cccc(C2=NNC(=O)Cc3cc4c(cc32)OCO4)c1 | < 3.49 | < 3.49 | 31% | 0% | – | – | – | – |
| O=C(O)c1cc(O)c2c(Cl)cc(Cl)cc2n1 | – | – | – | – | – | 7.05 | – | – |
| Nc1ccc(C2NNC(=O)Cc3cc4c(cc32)OCO4)cc1 (centres undefined) | < 4.00 | – | 10% | 9% | – | – | 6.47 µmol/kg | – |
| CCCCNC(=O)n1nc(-c2ccc(N)cc2)c2cc3c(cc2c1=O)OCO3 | < 4.00 | – | 0% | 13% | – | – | – | – |
| NS(=O)(=O)c1cccc2c1c([N+](=O)[O-])cc1nc(O)c(O)nc12 | – | – | – | 3% | – | – | – | – |
| CC1=NN=C(c2ccc(N)cc2)c2cc3c(cc2C1)OCO3 [GYKI-52466] | 4.66 | – | – | 18% | – | – | – | 4.90 |
| CCCCNC(=O)N1NC(c2ccc(N)cc2)c2cc3c(cc2CC1=O)OCO3 (centres undefined) | < 4.00 | – | 0% | 13% | 39.2 µmol/kg | – | 32.7 µmol/kg | – |
| Nc1ccc(-c2nnc(O)c3cc4c(cc23)OCO4)cc1 | < 4.00 | – | 13% | 12% | – | – | – | – |
| CNC(=O)N1NC(c2ccc(N)cc2)c2cc3c(cc2CC1=O)OCO3 (centres undefined) | < 4.00 | – | 0% | 12% | 14.7 µmol/kg | – | 12.4 µmol/kg | – |
| Nc1ccc(C2=NNC(=O)Cc3cc4c(cc32)OCO4)cc1 | 4.89 | 4.49 | 74% | 0% | – | – | – | – |
| CNC(=O)NC(=O)Cc1cc2c(cc1Cc1ccc(N)cc1)OCO2 | – | – | 0% | 0% | – | – | – | – |
